Source: patent US20220025004A1, “COMPOSITIONS AND METHODS RELATED TO SITE-SPECIFIC IDENTIFICATION OF RNA MODIFICATIONS” (The University of Chicago, priority 2018, published 2022)
Where a SMILES comes first, the peptide text is derived from it. The star is where a group is joined. Cbz = O=C(OCc1ccccc1)*; CHN2 = [N-]=[N+]=C*; tBu = CC(C)(C)*

Columns and labels:
[1] = tested on: wild-type DCs; assay: Cross-priming capacity of wild-type DCs pre-treated with cathepsin inhibitor E64 (ex vivo cDCs, CTV dilution; GMDCs, IFN-γ CBA); type: cell-based, mouse; conditions: E64 0.04 μM (ex vivo cDCs, OVA protein) or 0.2-2 μM (GMDCs, B16-OVA); OT-I T cells; FIGS. 12D-12E
Description: (§1) For cross-presentation of tumor neoantigen, CD11b^+ or CD8^+ DC were purified from draining lymph node of WT or Ythdf1^−/− mice six days after inoculating with B16-OVA, MC38-OTIp or MC38-EGFR-SIY. OT-I or 2C naive CD8^+ T cells were isolated from lymph nodes and spleen of 6 to 12-week-old mice. Negative selection was carried out with a negative CD8 isolation kit (StemCell Technologies, Inc.) following manufacturer's instruction. DCs were co-cultured with OT-1 naive CD8 T cells at the ratio of 1:10 for three days with or without 1 μg/ml SIINFEKEL peptide. For cross-presentation of soluble OVA, splenic DCs were sorted and stimulated with 100 ng/ml LPS overnight. DCs were then pulsed with different concentration of OVA (endotoxin free, Sigma) for 5 hours. Cells were washed and co-cultured with OT-I naive CD8^+ T cells for three days. For in vitro cross-presentation of tumor neoantigen, Flt3L-DCs were collected on day 9-10 and co-cultured with necrotic B16-OVA tumor cells overnight. B220^−CD11c^+ cells were subsequently purified. […] IFN-T production was detected by IFN-γ Flex Set CBA assay (BD Bioscience). […] The cross-priming capacity of DC was analyzed by the dilution of CTV in CD8^+ T cells. […] The cross-priming capacity of DCs was then evaluated by the IFN-γ production. […]

[2] = tested on: B16-OVA tumors; assay: Cathepsin blockade in vivo: B16-OVA tumor growth after intratumoral E64; design: species or system mouse; conditions: WT mice, s.c. B16-OVA, E64 intratumorally (5 μM or 50 μM) on day 11; FIG. 4B
Description: About 1×10^6 B16-OVA or MC38 tumor cells were injected s.c. into the flank of mice. Tumor volumes were measured by length (a) and width (b) and calculated as tumor volume=ab^2/2. Mice with tumor volumes less than 200 mm^3 are considered to be survival. For in vivo depletion experiments, 200 μg of anti-CD8 antibody (clone YTS169.4) or anti-NK1.1 (clone PK136) was injected i.p. three days after tumor inoculation. To block cathepsins in vivo, mice were inoculated with 1×10^6 B16-OVA cells. On day 11, mice with established tumors were treated with E64 intratumorally. For anti-PDL1 treatment, 1×10^6 B16-OVA tumor cells were s.c. injected into the flank of mice. Tumors were allowed to grow for seven days and treated i.p. by anti-PDL1 (clone10F.9G2) or Rat Ig. Tumor-free mice after treatment were monitored over time and the percentage of tumor-regression was calculated. To block IFNγ, tumor-bearing mice were treated with 50 μg anti-IFNγ mAb (clone XMG1.2) intratumorally and PD-L1 expression on tumor cells was evaluated by flow cytometry. All antibodies were ‘InVivoMAb’ from BioXCell. For adoptive transfer of T cells. Rag mice were inoculated with 5×10^5 B16-OVA on day 0. On the same day, T cells were purified from WT or Ythdf1^−/− mice using T cell negative isolation Kit (STEM CELL). 5×10^6 T cells were intravenously (i.v.) injected into Rag2^−/− mice.

[3] = tested on: Flt3L-DCs; assay: Cross-priming capacity of Flt3L-DCs pre-treated with CA-074 and/or cathepsin L inhibitor III, co-cultured with necrotic B16-OVA (IFN-γ production); type: cell-based, mouse; conditions: 5 μg/ml inhibitor for 2 h, necrotic B16-OVA 16 h, OT-I cells 3 days, FIG. 12F
Description: as §1

| Compound | efficiency of cross-priming in wild-type DCs [1] | in vivo antitumor response [2] | efficiency of cross-priming in wild-type DCs [3] |
| --- | --- | --- | --- |
| CC(C)C[C@H](NC(=O)[C@H]1O[C@@H]1C(=O)O)C(=O)NCCCCN=C(N)N [E64] | notably enhanced | markedly improved | – |
| CCCNC(=O)[C@H]1O[C@@H]1C(=O)N[C@H](C(=O)N1CCC[C@H]1C(=O)OC)[C@@H](C)CC [CA-074] | – | – | notably enhanced |
| CC(C)(C)Oc1ccc(C[C@H](NC(=O)[C@H](Cc2ccccc2)NC(=O)OCc2ccccc2)C(=O)C=[N+]=[N-])cc1 [cathepsin L inhibitor III] (Cbz-Phe-Tyr(tBu)-CHN2) | – | – | notably enhanced |
